Measurements taken from ChEMBL document CHEMBL1201862, “PubChem BioAssay data set” (2004).
Where “and” joins values, the source holds several entries; their conditions need not be identical. Identical values can stand only once.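 Each compound was tested at five concentrations against cells in 96-well plates for 48 hours. At the GI50, growth is halved.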 Calls of active or inactive are those of the source. No stated cut-off is given here; in the data, active = GI50 up to about 1.1 µM and inactive = higher.

Assays:
Assay in all cases: NCI anticancer screen, dose series, 48 h
A498 = test system: A498
COLO 205 = test system: COLO 205
HCC 2998 = test system: HCC 2998
HT-29 = test system: HT-29
KM12 = test system: KM12
MDA-MB-435 = test system: MDA-MB-435
MDA-N = test system: MDA-N
Malme-3M = test system: Malme-3M
NCI-H23 = test system: NCI-H23
OVCAR-8 = test system: OVCAR-8
RXF 393 = test system: RXF 393
SF-268 = test system: SF-268
SF-295 = test system: SF-295
SF-539 = test system: SF-539
SK-MEL-2 = test system: SK-MEL-2
SK-OV-3 = test system: SK-OV-3
SK-MEL-5 = test system: SK-MEL-5
TK-10 = test system: TK-10
LOX IMVI = test system: LOX IMVI

Measured: GI50

Cc1n[nH]c(=O)n1/N=C/c1cccc(Cl)c1
inactive: A498 40.8 µM | COLO 205 > 100 µM | HCC 2998 > 100 µM | HT-29 > 100 µM | KM12 > 100 µM | MDA-MB-435 94.4 µM | MDA-N > 100 µM | Malme-3M > 100 µM | NCI-H23 > 100 µM | OVCAR-8 64.7 µM | RXF 393 20.2 µM | SF-268 63.7 µM | SF-295 > 100 µM | SF-539 89.5 µM | SK-MEL-2 > 100 µM | SK-OV-3 > 100 µM

CC(C)(C)c1ccc2c(c1)OCc1n[nH]c(n1)COc1cc(C(C)(C)C)ccc1OCCOCCO2
inactive: A498 5.64 µM | COLO 205 2.31 µM | HCC 2998 3.72 µM | HT-29 3.01 µM | KM12 3.85 µM | MDA-MB-435 3.21 µM | MDA-N 3.11 µM | Malme-3M 2.07 µM | NCI-H23 3.09 µM | OVCAR-8 3.79 µM | RXF 393 1.62 µM | SF-268 4.37 µM | SF-295 3.55 µM | SF-539 7.29 µM | SK-MEL-2 1.81 µM | SK-MEL-5 2.38 µM | SK-OV-3 3.77 µM | TK-10 2.58 µM

CC(=O)C(=C(I)I)c1ccccc1
inactive: A498 22 µM | COLO 205 15.5 µM | HCC 2998 24.5 µM | HT-29 17.9 µM | KM12 20.9 µM | LOX IMVI 18.1 µM | MDA-MB-435 14.6 µM | MDA-N 15.2 µM | Malme-3M 12.3 µM | NCI-H23 16.8 µM | OVCAR-8 18.3 µM | RXF 393 20 µM | SF-268 25.1 µM | SF-295 25.9 µM | SF-539 21.1 µM | SK-MEL-2 21.8 µM | SK-MEL-5 15.1 µM | SK-OV-3 41.9 µM

O=S(=O)(SC1=NCCN1)c1cccc2ccccc12
inactive: A498 26.1 µM | COLO 205 17.8 µM | HCC 2998 > 10 µM | HT-29 28.7 µM | KM12 17.9 µM | LOX IMVI 43.8 µM | MDA-MB-435 29.6 µM | MDA-N 18.7 µM | Malme-3M 32 µM | NCI-H23 28.4 µM | OVCAR-8 28.8 µM | RXF 393 23.9 µM | SF-295 24.1 µM | SF-539 20.3 µM | SK-MEL-2 23.7 µM | SK-MEL-5 19.1 µM | SK-OV-3 19.5 µM

CSc1c(C(=O)Nc2ccc(C)cc2)c(N)nn1-c1ccccc1
inactive: A498 23.1 µM | COLO 205 > 100 µM | HCC 2998 58.3 µM | HT-29 > 100 µM | LOX IMVI > 100 µM | MDA-MB-435 > 100 µM | MDA-N > 100 µM | Malme-3M 19.9 µM | NCI-H23 > 100 µM | RXF 393 26.4 µM | SF-268 46 µM | SF-295 48.8 µM | SF-539 35.8 µM | SK-MEL-2 > 100 µM | SK-MEL-5 > 100 µM | SK-OV-3 64.6 µM | TK-10 33.3 µM

O=C(O)c1cnc2cc(OCc3ccccc3)ccc2c1O
inactive: A498 17.6 µM | COLO 205 18.2 µM | HCC 2998 18.3 µM | HT-29 19.2 µM | KM12 18.5 µM | MDA-MB-435 16.2 µM | MDA-N 17 µM | Malme-3M 13.8 µM | NCI-H23 17.9 µM | OVCAR-8 19 µM | RXF 393 18.3 µM | SF-268 16 µM | SF-295 19.3 µM | SF-539 19 µM | SK-MEL-2 18.5 µM | SK-MEL-5 17.7 µM | SK-OV-3 22.1 µM | TK-10 19.9 µM

CC(=O)OCC1OC(N2C(C)=C(C(C)=O)C(c3ccc(Cl)cc3)C(C#N)=C2S)C(OC(C)=O)C(OC(C)=O)C1OC(C)=O (configuration not stated)
inactive: A498 38.2 µM | COLO 205 19.4 µM | HCC 2998 47.1 µM | HT-29 42.7 µM | KM12 79.8 µM | LOX IMVI 76.2 µM | MDA-MB-435 36.8 µM | MDA-N 42.5 µM | Malme-3M 48.4 µM | NCI-H23 > 10 µM | OVCAR-8 52.5 µM | RXF 393 52.8 µM | SF-268 65.8 µM | SF-295 66.2 µM | SF-539 44.1 µM | SK-MEL-2 37.6 µM | SK-MEL-5 32.3 µM | TK-10 76.9 µM

COc1cc(C2S/C(=C/c3ccccc3)C(=O)N2c2cccc([N+](=O)[O-])c2)cc(OC)c1OC (configuration not stated)
inactive: A498 > 100 µM | COLO 205 > 100 µM | HCC 2998 > 100 µM | HT-29 50.1 µM | KM12 28.8 µM | LOX IMVI 40.8 µM | MDA-MB-435 17.5 µM | MDA-N 22.9 µM | Malme-3M > 100 µM | NCI-H23 > 100 µM | OVCAR-8 > 100 µM | SF-268 76.2 µM | SF-295 50.1 µM | SK-MEL-2 15.9 µM | SK-MEL-5 67.3 µM | SK-OV-3 > 100 µM | TK-10 > 100 µM

COc1ccc(/C=C2\CCCC(CN(C)C)C2=O)cc1 (configuration not stated)
inactive: A498 16.8 µM | COLO 205 2.1 µM | HCC 2998 6.71 µM | HT-29 1.75 µM | KM12 1.3 µM | LOX IMVI 1.34 µM | MDA-MB-435 2.61 µM | MDA-N 2.96 µM | Malme-3M 2.53 µM | NCI-H23 7.71 µM | OVCAR-8 3.64 µM | SF-268 3.03 µM | SF-295 19.1 µM | SF-539 14.9 µM | SK-MEL-2 3.36 µM | SK-MEL-5 15.3 µM | SK-OV-3 9.89 µM | TK-10 3.36 µM

COc1cc([C@H]2OC[C@H]3[C@@H]2CO[C@@H]3c2cc(OC)c3c(c2)OCO3)cc(OC)c1OC
inactive: A498 > 100 µM | COLO 205 48.3 µM and 42.5 µM | HCC 2998 56 µM and 27.9 µM | HT-29 37.3 µM and 54.6 µM | KM12 50.5 µM and 95.1 µM | LOX IMVI 70.6 µM and 96.8 µM | MDA-MB-435 76 µM | MDA-N 65.2 µM | NCI-H23 37.4 µM and 63 µM | OVCAR-8 31.3 µM and 49.3 µM | SF-268 68.2 µM and 59.2 µM | SF-295 48.1 µM and 47.9 µM | SF-539 > 100 µM | SK-MEL-2 > 100 µM | SK-MEL-5 19.2 µM and 18.6 µM | SK-OV-3 > 100 µM | TK-10 > 100 µM

CN(O)C(=O)c1ccc(OCc2cccc(Cl)c2)cc1
inactive: A498 25.8 µM | COLO 205 23.6 µM | HCC 2998 15.3 µM | HT-29 14.6 µM | KM12 27.5 µM | LOX IMVI 7.94 µM | MDA-MB-435 23.6 µM | MDA-N 35.8 µM | NCI-H23 11.4 µM | OVCAR-8 19 µM | RXF 393 25.6 µM | SF-268 21.2 µM | SF-295 13.2 µM | SF-539 19 µM | SK-MEL-2 34.4 µM | SK-MEL-5 27.8 µM | SK-OV-3 24.3 µM | TK-10 57.4 µM
